Reference: US7557110B2, “Pyrazolo[1,5-A] pyrimidine derivatives” (Teijin Pharma Limited, priority 2003, dated 2009)

How the values were obtained:
MAPKAP-K2 = MAPKAP-K2 (Homo sapiens, UniProt P49137); experiment: MAPKAP-K2 enzyme activity inhibition (33P-ATP filter plate kinase assay); assay type: biochemical; details: MAPKAP-K2 inhibitory activity; assays conducted at typically 1-100 μM; note: key: +: active; ++: more active; +++: very active
Method: [General Procedure for Measurement of MAPKAP-K2 Enzyme Activity Inhibition]
After conducting the reaction for 30 minutes at room temperature, an equivalent volume of a 200 mM phosphoric acid solution was added to suspend the reaction, and 90 μL of the reaction product was adsorbed onto a MultiScreen PH plate (Millipore) and rinsed with a 100 mM phosphoric acid solution. After drying the plate, 30 μL of MicroScint-O (Packard BioScience) was added, and the cpm was measured with a scintillation counter to determine the inhibiting activity. Substrate peptide is […]

CDK-2 = CDK-2 (Homo sapiens, UniProt P24941); experiment: CDK-2 enzyme activity inhibition (33P-ATP filter plate kinase assay); assay type: biochemical; details: read-out: CDK-2 inhibition IC50
Text: [General Procedure for Measurement of CDK-2 Enzyme Activity Inhibition]

MAPKAP-K2, sequence (P49137 whole entry): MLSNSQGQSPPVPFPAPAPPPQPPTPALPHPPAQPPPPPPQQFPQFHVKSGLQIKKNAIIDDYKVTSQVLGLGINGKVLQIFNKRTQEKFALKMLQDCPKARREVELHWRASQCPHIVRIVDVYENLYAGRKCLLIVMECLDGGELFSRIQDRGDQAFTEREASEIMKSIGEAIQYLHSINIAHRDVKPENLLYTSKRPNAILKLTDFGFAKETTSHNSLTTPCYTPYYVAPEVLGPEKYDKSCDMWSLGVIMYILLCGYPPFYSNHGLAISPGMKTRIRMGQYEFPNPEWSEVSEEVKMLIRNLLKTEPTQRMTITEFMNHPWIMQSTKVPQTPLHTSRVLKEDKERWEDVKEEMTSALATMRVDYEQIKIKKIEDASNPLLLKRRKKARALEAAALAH

SMILES	activity (efficacy against MAPKAP-K2) (MAPKAP-K2)	IC50 (CDK-2)
Cc1c(N[C@H]2CC[C@H](N)CC2)nc2ccnn2c1Nc1ccc(OC2CCCCC2)cc1 [Compound 202]	+++	< 100 µM
CCOc1ccc(Nc2c(C)c(NC3CCCCNC3)nc3ccnn23)cc1 (stereo not shown) [Compound 272, [5-(azaperhydroepin-3-ylamino)-6-methyl(pyrazolo[1,5-a]pyrimidin-7-yl)](4-ethoxyphenyl)amine]	++	–
Cc1c(NC2CCCNC2)nc2ccnn2c1Nc1ccc(I)cc1 (stereo not shown) [Compound 105]	+++	< 100 µM
CCOc1ccc(Nc2c(C)c(NC(CO)C(C)C)nc3ccnn23)cc1 (stereo not shown) [Compound 366]	–	< 100 µM
Cc1c(N[C@H]2CC[C@H](N)CC2)nc2ccnn2c1Nc1cccc(OCCN2CCNCC2)c1 [Compound 259, {5-[(trans-4-aminocyclohexyl)amino]-6-methyl(pyrazolo[1,5-a]pyrimidin-7-yl)}[3-(2-piperazinylethoxy)phenyl]amine]	++	–
CCOc1ccc(Nc2c(C)c(NC3(CO)CCCC3)nc3ccnn23)cc1 [Compound 368]	–	< 100 µM
Cc1c(NC2CCCNC2)nc2ccnn2c1Nc1ccc(F)c(Cl)c1 (stereo not shown) [Compound 152]	++	–
CCOc1ccc(Nc2c(C)c(NC(C)(C)CO)nc3ccnn23)cc1 [Compound 371]	–	< 100 µM
Cc1c(N[C@H]2CC[C@H](N)CC2)nc2ccnn2c1Nc1ccc(C#Cc2ccccc2)cc1 [Compound 375, {5-[(trans-4-aminocyclohexyl)amino]-6-methyl(pyrazolo[1,5-a]pyrimidin-7-yl)}[4-(2-phenylethynyl)phenyl]amine]	+++	–
CCOc1ccc(Nc2c(C)c(N[C@H]3CC[C@H](N)CC3)nc3c(NC(C)=O)cnn23)cc1 [Compound 378, N-{5-[(trans-4-aminocyclohexyl)amino]-7-[(4-ethoxyphenyl)amino]-6-methyl(pyrazolo[1,5-a]pyrimidin-3-yl)}acetamide]	+	–

Now from value to compound:

activity (efficacy against MAPKAP-K2) (MAPKAP-K2)	IC50 (CDK-2)	SMILES
+	–	CCOc1ccc(Nc2c(C)c(N[C@H]3CC[C@H](N)CC3)nc3c(NS(C)(=O)=O)cnn23)cc1 [Compound 386, {5-[(trans-4-aminocyclohexyl)amino]-7-[(4-ethoxyphenyl)amino]-6-methyl(pyrazolo[1,5-a]pyrimidin-3-yl)}(methylsulfonyl)amine]
+++	–	Cc1c(N[C@H]2CC[C@H](N)CC2)nc2ccnn2c1Nc1cccc(-c2cccnc2)c1 [Compound 450, {5-[(trans-4-aminocyclohexyl)amino]-6-methyl(pyrazolo[1,5-a]pyrimidin-7-yl)}(3-(3-pyridyl)phenyl)amine]
++	–	CCCC1CCNCC1Nc1nc2ccnn2c(Nc2ccc(OCC)cc2)c1C (racemic) [Compound 814, 7-N-(4-Ethoxy-phenyl)-6-methyl-5-N-(4-propyl-piperidin-3-yl)-pyrazolo[1,5-a]pyrimidine-5,7-diamine]
++	–	CCOc1ccc(Nc2c(C)c(N[C@H]3CC[C@H](N)CC3)nc3c(NC(=O)Nc4ccccc4)cnn23)cc1 [Compound 389, N-{5-[(trans-4-aminocyclohexyl)amino]-7-[(4-ethoxyphenyl)amino]-6-methyl(pyrazolo[1,5-a]pyrimidin-3-yl)}(phenylamino)carboxamide]
–	< 100 µM	CCOc1ccc(Nc2c(C)c(N[C@H]3CC[C@H](N)CC3)nc3c(OC)cnn23)cc1 [Compound 425]
+	–	CCOc1ccc(Nc2c(C)c(N[C@H]3CC[C@H](N)CC3)nc3c(NCc4ccccc4)cnn23)cc1 [Compound 436, {5-[(trans-4-aminocyclohexyl)amino]-6-methyl-[3-benzylamino](pyrazolo[1,5-a]pyrimidin-7-yl)}(4-ethoxyphenyl)amine]
+++	–	Cc1c(N[C@H]2CC[C@H](N)CC2)nc2ccnn2c1Nc1ccc(C(=O)N2CCCC2)cc1 [Compound 792, 4-({5-[(trans-4-aminocyclohexyl)amino]-6-methyl(pyrazolo[1,5-a]pyrimidin-7-yl)}amino)phenyl pyrrolidinyl ketone]
